# Experimental data published in patent US20190327974A1, “SYNERGISTS FOR IMPROVED PESTICIDES” (priority 2017, published 2019).
# Tests used:
# [1] = Observation of the spray mixtures (flocculation); assay type: physicochemical; details: alone and in mixture with CPE in all doses
# [2] = tested on: panel of CBEs from various pests; test: Panel of insect CBEs as a whole; assay type: biochemical
# Description: Assays were performed with 4-NPB as the substrate.
# [3] = tested on: Myzus persicae (Green peach aphid); test: Efficacy of chlorpyrifos-ethyl with boronic acids on aphids on broad bean leaves; assay type: in vivo; details: for Percentage of efficacy: boronic acid where present 0.2 mg/ml
# Description: Experimentations was carried out in BIOtransfer, France under controlled conditions.
# Bean leaves were treated with chlorpyrifos 480 EC (480 g a.i./1) at 4 application rates (360, 180, 90, 45 g a.i./ha), used alone or in combination with 3 boronic acid (BA) derivates (3.10, 5 and 3.7) each at 0.2 mg/ml. The treatment was performed with an agricultural nozzle (300 L per hectare) […]. A non-treated control condition were also evaluated in parallel. Statistical analysis of the data was then performed. When the leaves were totally dry, 3 leaves were sampled and infested with 3 wingless adults of M. persicae per leaf fragment.
# • T+1 (DAT 1)—One day later the number of adults remaining on the leaves was counted. • T+3 (DAT 3)—3 days after treatment the aphid population was estimated; • T+7 (DAT 7)—7 days after treatment the development of aphid population was estimated.
# 3 bean leaves fragments per microbox*4 microbox per condition (1 condition is 1 formulation at 1 dose)*9 adult aphids per microbox*4 insecticides (3 chlorpyrifos derivates+clorpyrifos alone)*4 rates+2 controls (1 reference insecticide formulation at one dose and non-treated)*3 assessments timings (DAT+1, DAT+3 and DAT+7).
# [4] = target: Lucilia cuprina αE7 carboxylesterase (LcαE7) variant Gly137Asp (Lucilia cuprina, UniProt Q25252, G137D); test: Inhibition of Gly137Asp LcαE7, 4-nitrophenol butyrate hydrolysis; assay type: biochemical
# From the text: The term “carboxyethylesterase” (CBE), refers to insect carboxylesterases from the alpha and beta and non-microsomal gene clusters, as defined in Oakeshott, Claudianos, Campbell, Newcomb and Russell, “Biochemical Genetic and Genomics of Insect Esterases”, pp 309-381, Chapter 10, Volume 5, 2005, Eds. Gilbert, Iatrou, Gill, published—Elsevier which is incorporated herein by reference. The αE7 CBE is an example of an alpha esterase, and is found in the sheep blowfly, Lucilia cuprina, with homologous genes being present in other insect pests. […]
# His6-tagged proteins were expressed in BL21(DE3) E. coli (Invitrogen) at 26° C. for 18 hours. […] Protein concentration was determined by measuring the absorbance at 280 nm with an extinction coefficient calculated using the Protparam online server (Gasteiger, E. et al. Protein identification and analysis tools on the ExPASy server. Proteomics Protoc. Handb. 571-607 (2005). doi:10.1385/1-59259-890-0:571).
# Inhibition of wild-type αE7 and the Gly137Asp αE7 variant was determined by a competition assay between the native-substrate analogue 4-nitrophenol butyrate (Sigma) and the boronic acid compounds. Initially, the Michalis constant (KM) with 4-nitrophenol butyrate was measured for both enzymes to determine an appropriate concentration of substrate for use in the competition assays. […]
# [5] = tested on: panel of 26 human serine or threonine proteases; test: Protease selectivity panel as a whole (26 Ser/Thr proteases); assay type: biochemical; details: 100 μM; the 3 proteases inhibited by more than 50%
# Description: Test compounds were dissolved in 100% DMSO to make 10 mM stock. Final compound concentration in assay is […]. Compounds were tested in duplicate wells at single concentration and the final concentration of DMSO in all assays was kept at 1%. Five reference compounds, AEBSF, Carfilzomib, Granzyme B Inhibitor II, Dec-RVKR-CMK, and Teneligliptin hydrobromide, were tested in an identical manner with 8 concentration points at 5× dilutions.
# Sequence of Lucilia cuprina αE7 carboxylesterase (LcαE7) variant Gly137Asp (Q25252 entry or part of it G137D): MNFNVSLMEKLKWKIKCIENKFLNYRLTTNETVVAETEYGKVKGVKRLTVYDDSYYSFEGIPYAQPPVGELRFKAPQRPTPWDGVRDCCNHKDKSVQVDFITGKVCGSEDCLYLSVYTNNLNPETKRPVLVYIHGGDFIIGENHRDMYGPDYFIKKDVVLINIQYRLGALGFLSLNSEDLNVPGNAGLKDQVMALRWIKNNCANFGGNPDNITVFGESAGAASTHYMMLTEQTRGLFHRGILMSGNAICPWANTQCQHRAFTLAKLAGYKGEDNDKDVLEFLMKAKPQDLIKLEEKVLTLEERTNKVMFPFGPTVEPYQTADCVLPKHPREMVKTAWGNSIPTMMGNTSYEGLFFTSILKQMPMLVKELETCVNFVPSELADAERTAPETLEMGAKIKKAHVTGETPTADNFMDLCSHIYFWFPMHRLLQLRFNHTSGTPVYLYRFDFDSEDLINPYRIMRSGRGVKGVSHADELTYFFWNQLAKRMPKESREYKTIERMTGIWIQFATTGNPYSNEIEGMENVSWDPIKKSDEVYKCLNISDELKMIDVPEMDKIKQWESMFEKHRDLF
smiles,measurement,setting,value
"OB(O)c1ccc(OCc2ccccc2F)c(Cl)c1 [Compound 5, 3-Chloro-4(2′-fluorobenzyloxy) phenylboronic acid]",flocculation,[1],Flocculation is observed
same,inhibition spectrum across CBEs,[2],efficiently inhibiting six different CBEs
"CCOP(=S)(OCC)Oc1nc(Cl)c(Cl)cc1Cl [CPE, Chlorpyrifos-ethyl]",Percentage of efficacy,"[3]; CPE 0.7, 1 DAT",38%
same,Percentage of efficacy,"[3]; CPE 0.7, 3 DAT",20%
same,Percentage of efficacy,"[3]; CPE 0.7, 7 DAT",25%
same,Percentage of efficacy,"[3]; CPE 1.4, 1 DAT",41%
same,Percentage of efficacy,"[3]; CPE 1.4, 3 DAT",27%
same,Percentage of efficacy,"[3]; CPE 1.4, 7 DAT",25%
same,Percentage of efficacy,"[3]; CPE 2.8, 1 DAT",32%
same,Percentage of efficacy,"[3]; CPE 2.8, 3 DAT",26%
same,Percentage of efficacy,"[3]; CPE 2.8, 7 DAT",23%
same,Percentage of efficacy,"[3]; CPE 5.6, 1 DAT",36%
same,Percentage of efficacy,"[3]; CPE 5.6, 3 DAT",48%
same,Percentage of efficacy,"[3]; CPE 5.6, 7 DAT",67%
same,Calibration results (efficacy),"[3]; CPE 1.4, 1 DAT",33%
same,Calibration results (efficacy),"[3]; CPE 1.4, 3 DAT",51%
same,Calibration results (efficacy),"[3]; CPE 1.4, 7 DAT",51%
same,Calibration results (efficacy),"[3]; CPE 2.8, 1 DAT",31%
same,Calibration results (efficacy),"[3]; CPE 2.8, 3 DAT",79%
same,Calibration results (efficacy),"[3]; CPE 2.8, 7 DAT",99%
same,Calibration results (efficacy),"[3]; CPE 5.6, 1 DAT",67%
same,Calibration results (efficacy),"[3]; CPE 5.6, 3 DAT",98%
same,Calibration results (efficacy),"[3]; CPE 5.6, 7 DAT",100%
OB(O)c1cc(Br)cc(N2CCCC2)c1 [Compound 3],inhibition of Gly137Asp LcαE7,[4],poor inhibitor of Gly137Asp LcαE7
same,residual activity of the inhibited proteases,[5],at least 30%
